These are literature values, as cited in patent US20160193276A1 (Teva Pharmaceutical Industries, Ltd., priority 2012, published 2016).

For one data set, the system named is MS patients. The conditions noted are these: 20 mg/day subcutaneous (s.c.).
For the next data set, the system named is rats. The conditions noted are these: orally administered.
The next data set relates to mice. As to conditions: orally administered.
Data set [1] relates to patients with relapsing multiple sclerosis. The conditions noted are these: administered orally.

For the substance “L-glutamic acid polymer with L-alanine, L-lysine, L-tyrosine, acetate (salt) [glatiramer acetate]”, the “Total number of enhancing lesions as measured by MRI” value in the data set on MS patients is “reduce”. Also, the “Induction of EAE” value in the data set with rats and in the data set with mice was “inhibited” throughout. The “Relapse rate or other clinical MRI parameters of disease activity” value in data set [1] is listed as “did not affect”.
